# Results reported in patent US9624167B2, “N-(4-hydroxy-4-methyl-cyclohexyl)-4-phenyl-benzenesulfonamides and N-(4-hydroxy-4-methyl-cyclohexyl)-4-(2-pyridyl)benzenesulfonamides and their therapeutic use” (PIMCO 2664 LIMITED, priority 2013, dated 2017).
# Like-named read-outs stand apart in the source and are kept apart here.
# Columns and labels:
# B-lymphocytes = experiment: Human primary leucocyte viability: B-lymphocytes; type: cell-based; settings: 3 μM
# Experimental: (§1) The effects of the reference compound (ABD735) on the viability of neutrophils, monocytes, CD4+ and CD8+ T-cells and B-lymphocytes was assessed under both resting and stimulated conditions. Resting conditions were used to assess likely effects on normal cells found in human blood, and stimulated conditions were used to assess the effects of the compound under disease conditions.
# (§2) Effects on cell viability were assessed using flow cytometry. Flow cytometry is a laser-based, biophysical technology employed in cell counting, cell sorting, and biomarker detection, by suspending cells in a stream of fluid and passing them by an electronic detection apparatus. It allows simultaneous multi-parametric analysis of the physical and chemical characteristics of up to thousands of particles per second. The sorting of cells using flow cytometry requires the use of specific cell markers. To quantify cell numbers, counting beads are used as an internal standard. […] In addition, for B- and T-lymphocytes, cell proliferation was measured using a dye known as Cell Proliferation Dye (eFluor® 450). eFluor® 450 is an organic dye which can be conjugated to cell-specific markers. […]
# (§3) The average results (n=3) for the reference compound (ABD735) were expressed as a fold change versus the average control value. […]
# CD8+ T-lymphocytes [1] = experiment: Human primary leucocyte viability: CD8+ T-lymphocytes; type: cell-based; settings: 3 μM, 48 hours
# Experimental: as §1, §2, §3
# Neutrophils = experiment: Human primary leucocyte viability: neutrophils; type: cell-based; settings: 3 μM, 24 hours
# Experimental: as §1, §2, §3
# CD8+ T-lymphocytes [2] = experiment: Human primary leucocyte proliferation: CD8+ T-lymphocytes; type: cell-based; settings: 3 μM, 5 days
# Experimental: as §2, with “standard. Counting beads are a calibrated suspension of microbeads which are added to a known volume of sample so the sample volume per bead is known.” for “standard.”
# (§4) PBMCs (peripheral blood mononuclear cells) were collected from healthy donors (all female) and isolated by centrifugation on a layer of Ficoll Paque (GE Healthcare, UK). […] Following incubation, the cells were stained with either anti-human CD8 or CD4 before being analysed on a flow cytometer. […]
# as §3
# CD4+ T-lymphocytes [3] = experiment: Human primary leucocyte proliferation: CD4+ T-lymphocytes; type: cell-based; settings: 3 μM, 5 days
# Experimental: as §2, with “standard. Counting beads are a calibrated suspension of microbeads which are added to a known volume of sample so the sample volume per bead is known.” for “standard.”
# as §4, §3
# CD4+ T-lymphocytes [4] = experiment: Human primary leucocyte viability: CD4+ T-lymphocytes; type: cell-based; settings: 3 μM, 48 hours
# Experimental: as §1, §2, §3
# [5] = Maximum Tolerated Dose, Han Wistar rats; settings: rat, in vivo, oral
# Experimental: The acute safety of the compounds was assessed in rats in order to enable determination of the maximum tolerated dose (MTD), an indication of a compound's safety in animals. The higher the MTD, the greater is the potential safety of the compound being tested.
# At the completion of the study, the results were expressed as the maximum tolerated dose for each compound, this being the highest of each without unacceptable toxicity.
# The maximum dose without unacceptable side-effects was determined to be the MTD (expressed in mg/kg).
Structure (SMILES),"Fold change in viability (B-lymphocytes; SAC/IL-2, 48 hours)","Fold change in viability (B-lymphocytes; no stimulation, 48 hours)",Fold change in viability (CD8+ T-lymphocytes [1]; no stimulation),Fold change in viability (CD8+ T-lymphocytes [1]; phytohaemagglutinin),Fold change in viability (Neutrophils; Dexamethasone),Fold change in viability (Neutrophils; no stimulation),Fold change in proliferation (CD8+ T-lymphocytes [2]; no stimulation),Fold change in proliferation (CD8+ T-lymphocytes [2]; phytohaemagglutinin),Fold change in proliferation (CD4+ T-lymphocytes [3]; no stimulation),Fold change in proliferation (CD4+ T-lymphocytes [3]; phytohaemagglutinin),Fold change in viability (CD4+ T-lymphocytes [4]; no stimulation),Fold change in viability (CD4+ T-lymphocytes [4]; phytohaemagglutinin),"MTD ([5]; female Han Wistar rats, read-out: Maximum tolerated dose, Females) [mg/kg]","MTD ([5]; male Han Wistar rats, read-out: Maximum tolerated dose, Males) [mg/kg]"
Cc1cc(S(=O)(=O)N[C@H]2CC[C@H](O)CC2)ccc1-c1ccc(F)cc1F [ABD735],1.1,0.9,0.8,0.7,0.8,1.0,0.7,0.3,1,0.6,0.9,0.6,–,–
"C[C@]1(O)CC[C@H](NS(=O)(=O)c2ccc(-c3ccc(Cl)cc3C#N)cc2)CC1 [HMC-C-01-A, 4′-Chloro-2′-cyano-N-((1r,4r)-4-hydroxy-4-methylcyclohexyl)biphenyl-4-sulfonamide]",–,–,–,–,–,–,–,–,–,–,–,–,> 500,> 500
